Test results from patent US6664419B1, “Method and device for purifying substances by means of crystallization” (Stockhausen GmbH & Co. KG, priority 1999, dated 2003).
Where two headings read alike, the source gives them in different places.

Experiment: Solubility limit of impurity in molten acrylic acid
Assay type: physicochemical
Excerpt: In addition to other impurities, acrylic acid pre-purified by distillation may contain maleic acid, its anhydride, and phenothiazine which precipitate from the molten material at concentrations of more than 4% (maleic acid) and 1.5% (phenothiazine), respectively. The respective amounts of solid precipitating during a crystallization process as a result of surpassing the solubility limit can be inferred from the following Examples (Table 1 and 2).
The solubility of maleic acid in acrylic acid is about 4%. The residue (13.2 kg) contains 20.4% or 2.7 kg of maleic acid, 2.4 kg of which precipitates as a solid as a result of surpassing the solubility limit.

| solubility in acrylic acid | Compound | solubility in acrylic acid (in acrylic acid melt / mother liquor, precipitates above this concentration) |
| --- | --- | --- |
| – | c1ccc2c(c1)Nc1ccccc1S2 [PTZ, phenothiazine] | about 1.5% |
| about 4% | O=C(O)/C=C\C(=O)O [maleic acid] | – |
